Laboratory results from the supplement of paper PMC11451515.

Tested on: NOMO1
Assay: cell viability relative to DMSO control; higher = less cytotoxic
Conditions: 48 h
Procedure, shortened: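 Leukemia cells (NOMO1 or SEM, 500 cells/well; P12-Ichikawa, 1000 cells/well) were seeded in 5 μl in 1536-well plates after at least four passages of adaptation to each medium. They received library compounds in DMSO by pin dosing, 11 threefold points from 47 μM to 0.79 nM. Luminescence with CellTiter-Glo One was read after 48 h at 37°C. Viability is stated per plate relative to DMSO wells, with cell-free wells as background.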

[1] = RPMI 5 mM glucose + 10% dialyzed FBS, 0.000781 µM
[2] = RPMI 5 mM glucose + 10% dialyzed FBS, 0.00234 µM
[3] = RPMI 5 mM glucose + 10% dialyzed FBS, 0.00702 µM
[4] = RPMI 5 mM glucose + 10% dialyzed FBS, 0.0211 µM
[5] = RPMI 5 mM glucose + 10% dialyzed FBS, 0.0632 µM
[6] = RPMI 5 mM glucose + 10% dialyzed FBS, 0.19 µM
[7] = RPMI 5 mM glucose + 10% dialyzed FBS, 0.569 µM
[8] = RPMI 5 mM glucose + 10% dialyzed FBS, 1.71 µM
[9] = RPMI 5 mM glucose + 10% dialyzed FBS, 5.12 µM
[10] = RPMI 5 mM glucose + 10% dialyzed FBS, 15.4 µM
[11] = RPMI 5 mM glucose + 10% dialyzed FBS, 46.1 µM

Row | SMILES | cell viability [1] [%] | cell viability [2] [%] | cell viability [3] [%] | cell viability [4] [%] | cell viability [5] [%] | cell viability [6] [%] | cell viability [7] [%] | cell viability [8] [%] | cell viability [9] [%] | cell viability [10] [%] | cell viability [11] [%] | cell viability (RPMI 5 mM glucose + 10% FBS, 0.000781 µM) [%] | cell viability (RPMI 5 mM glucose + 10% FBS, 0.00234 µM) [%] | cell viability (RPMI 5 mM glucose + 10% FBS, 0.00702 µM) [%] | cell viability (RPMI 5 mM glucose + 10% FBS, 0.0211 µM) [%] | cell viability (RPMI 5 mM glucose + 10% FBS, 0.0632 µM) [%] | cell viability (RPMI 5 mM glucose + 10% FBS, 0.19 µM) [%] | cell viability (RPMI 5 mM glucose + 10% FBS, 0.569 µM) [%] | cell viability (RPMI 5 mM glucose + 10% FBS, 1.71 µM) [%] | cell viability (RPMI 5 mM glucose + 10% FBS, 5.12 µM) [%] | cell viability (RPMI 5 mM glucose + 10% FBS, 15.4 µM) [%] | cell viability (RPMI 5 mM glucose + 10% FBS, 46.1 µM) [%]
1 | CNC(=O)CN1CCC(Oc2cc3c(Nc4cccc(Cl)c4F)ncnc3cc2OC)CC1 | 116 | 122 | 138 | 133 | 141 | 144 | 52.7 | 41.8 | 32.1 | 33.7 | 31.7 | – | – | – | – | – | – | – | – | – | – | –
2 | CCCC1OC2C[C@H]3[C@@H]4CCC5=CC(=O)C=C[C@]5(C)[C@H]4C(O)C[C@]3(C)[C@]2(C(=O)CO)O1 (stereo partly drawn) | 99.5 | 119 | 106 | 114 | 110 | 102 | 105 | 115 | 97.1 | 95.3 | 63.7 | 106 | 105 | 107 | 111 | 107 | 104 | 106 | 103 | 100 | 97.5 | 46.7
